We go through two compounds from US20220213092A1, “BICYCLIC PYRAZOLE BRUTON'S TYROSINE KINASE INHIBITORS” (AbbVie Inc., priority 2020, published 2022).

The series concerns CYP3A4. Kind of series: CYP3A4 induction assay (CYP 3A4 mRNA by qPCR in cryopreserved human hepatocytes). It is filed as in vitro ADME. The following applies: 10 μM compound; for CYP3A4 Ind. (%): value in brackets: induction relative to prototypical inducer rifampicin = 100%. The protocol: CYP induction was evaluated in vitro by determining the expression levels of CYP 3A4 mRNA using the qPCR (quantitative polymerase chain reaction) assay. On day one, cryopreserved human hepatocytes were thawed in prewarmed (37° C.) thawing medium (cryopreserved hepatocyte recovery medium, Gibco™ CM 7000; Thermo Fisher Scientific), centrifuged (1000 g for 10 minutes) and resuspended in plating medium (Gibco™ CM3000—Williams Medium E supplemented with hepatocytes plating supplement pak-serum containing; Thermo Fisher Scientific). Cells were counted by trypan blue exclusion using a hemocytometer and adjusted to a cell density of […]. Thereafter, […] of cell suspension was aliquoted per well in a 96-well plate, resulting in 60,000 cells/well. Plates were shaken in the north-south and east-west direction during plating. Plated cells were incubated at 37° C./5% CO2 in a humidified cell culture incubator for 4-6 hours. During this time, incubation medium (Gibco™ CM4000, cell maintenance supplement pack; Thermo Fisher Scientific) was mixed with Gibco™ Geltrex™ (Thermo Fischer Scientific) at the appropriate Geltrex™ protein concentration. Following recovery, medium was removed from cells and replaced with freshly prepared incubation medium. Cells were incubated overnight in a cell culture incubator (37° C./5% CO2).
The next day the incubation medium was prepared by combining the hepatocyte maintenance supplement pack with Williams medium E. The medium was warmed to 37° C. 1000× dimethyl sulfoxide compound stocks were prepared to the desired concentrations. 10 mM compound stocks in dimethyl sulfoxide were diluted (1 μL to 1 mL CM4000; final concentration=10 μM). Overlay medium was aspirated and […] dose solution added to the desired labeled 96 well plate. Cells were returned to the humidified incubator overnight (37° C./5% CO2).
On day 3, incubation medium was warmed to 37° C., and the same process for compound preparation repeated as in day 2, i.e. 1000× dimethyl sulfoxide compound stocks were prepared to the desired concentration, diluted (1:1000) in warm incubation medium, and this freshly prepared medium was used to replace treatment medium. Cells were returned to the humidified incubator (37° C./5% CO2) overnight.
On day 4, RNA isolation was performed. Prior to RNA isolation, cell viability was assessed using presto blue reagent. 10× dilution of PrestoBlue™ reagent (Thermo Fisher Scientific) was prepared by mixing 1.4 mL PrestoBlue™ with 12.6 mL incubation medium. Medium was aspirated from cells, and 100 μL of cell viability medium (10× dilution of PrestoBlue™ reagent) added and incubated for 17 minutes. Cell viability was determined by measuring absorbance using a microplate reader (Spark® 10M Tecan Life Sciences). After this measurement, media was aspirated using a multichannel aspirator and a glass pipet to completely aspirate from each well. Plates were stored or immediately used for mRNA isolation. All surfaces were cleaned using RNase away. 2× Lysis buffer was well mixed after incubation at ambient temperature. Fresh lysis buffer was prepared by mixing 0.125 μL of 0.5 mM DTT with 4.875 μL 2× lysis buffer. 1× lysis buffer containing DTT was then prepared by adding 5 μL dilution buffer to the 2× lysis buffer and mixing thoroughly. Thereafter, cell lysates were prepared by adding 1× lysis buffer to each sample well (96-well plate). Samples were incubated for 3-6 minutes at ambient temperature while shaking (350-400 rpm) to lyse the cells. Cells were scrapped with tips, and cell lysate (80 μL) was transferred to each well of the mRNA Catcher PLUS™ plate (Thermo Fisher Scientific). mRNA Catcher PLUS™ plate containing samples was covered with adhesive plastic film plate cover and incubated at ambient temperature for 45-60 minutes for RNA hybridization.
After hybridization, lysate was aspirated from the cells. […]
A general note: Quantitative PCR measures a nucleic acid by following its amplification.

With `C=CC(=O)N1CCC([C@@H]2CCNc3c(C(N)=O)c(-c4ccc(Oc5ccccc5)cc4)nn32)CC1` [Compound A, reference compound], the “CYP3A4 Ind. (%)” value is 125%.
Consider `C=CC(=O)N1CCN([C@@H]2CCNc3c2nn(-c2ccc(Oc4ccccc4)cc2)c3C(N)=O)CC1` [Example 6, (7R)-2-(4-phenoxyphenyl)-7-[4-(prop-2-enoyl)piperazin-1-yl]-4,5,6,7-tetrahydro-2H-pyrazolo[4,3-b]pyridine-3-carboxamide], for which the “CYP3A4 Ind. (%)” value is recorded as −1.3%. The “CYP3A4 Ind. fold” value (CYP3A4 mRNA fold change vs vehicle) is given as 0.9 fold.
